Data published in ChEMBL document CHEMBL4507301 (2021).

How the values were obtained:
[1] = target: Serine/threonine-protein kinase Nek9 (Homo sapiens) (UniProt Q8TD19); details: Compound concentration 1000.0 nM
[2] = target: Mitogen-activated protein kinase kinase kinase 2 (Homo sapiens) (UniProt Q9Y2U5); details: Compound concentration 1000.0 nM
[3] = test system: Receptor-type tyrosine-protein kinase FLT3 (Homo sapiens), P36888 [D835H]; details: Compound concentration 1000.0 nM
[4] = test system: Tyrosine-protein kinase ABL1 (Homo sapiens), P00519 [E255K]; details: Compound concentration 1000.0 nM
[5] = target: Serine/threonine-protein kinase MARK1 (Homo sapiens) (UniProt Q9P0L2); details: Compound concentration 1000.0 nM
[6] = target: Homeodomain-interacting protein kinase 3 (Homo sapiens) (UniProt Q9H422); details: Compound concentration 1000.0 nM
[7] = target: Membrane-associated tyrosine- and threonine-specific cdc2-inhibitory kinase (Homo sapiens) (UniProt Q99640); details: Compound concentration 1000.0 nM
[8] = test system: Receptor-type tyrosine-protein kinase FLT3 (Homo sapiens), P36888 [D835Y]; details: Compound concentration 1000.0 nM
[9] = target: Tyrosine-protein kinase Lck (Homo sapiens) (UniProt P06239); details: Compound concentration 1000.0 nM
[10] = target: Bone morphogenetic protein receptor type-1B (Homo sapiens) (UniProt O00238); details: Compound concentration 1000.0 nM
[11] = target: SRSF protein kinase 2 (Homo sapiens) (UniProt P78362); details: Compound concentration 1000.0 nM
[12] = target: Cyclin-dependent kinase 8 (Homo sapiens) (UniProt P49336); details: Compound concentration 1000.0 nM
[13] = target: cGMP-dependent protein kinase 2 (Homo sapiens) (UniProt Q13237); details: Compound concentration 1000.0 nM
[14] = target: Serine/threonine-protein kinase tousled-like 1 (Homo sapiens) (UniProt Q9UKI8); details: Compound concentration 1000.0 nM
[15] = target: Histamine H4 receptor (Homo sapiens) (UniProt Q9H3N8); details: Compound concentration 10.0 uM
[16] = target: Casein kinase I isoform delta (Homo sapiens) (UniProt P48730); details: Compound concentration 1000.0 nM
[17] = target: Protein kinase C epsilon type (Homo sapiens) (UniProt Q02156); details: Compound concentration 1000.0 nM
Chain of Protein kinase C epsilon type (Homo sapiens) (Q02156 whole entry): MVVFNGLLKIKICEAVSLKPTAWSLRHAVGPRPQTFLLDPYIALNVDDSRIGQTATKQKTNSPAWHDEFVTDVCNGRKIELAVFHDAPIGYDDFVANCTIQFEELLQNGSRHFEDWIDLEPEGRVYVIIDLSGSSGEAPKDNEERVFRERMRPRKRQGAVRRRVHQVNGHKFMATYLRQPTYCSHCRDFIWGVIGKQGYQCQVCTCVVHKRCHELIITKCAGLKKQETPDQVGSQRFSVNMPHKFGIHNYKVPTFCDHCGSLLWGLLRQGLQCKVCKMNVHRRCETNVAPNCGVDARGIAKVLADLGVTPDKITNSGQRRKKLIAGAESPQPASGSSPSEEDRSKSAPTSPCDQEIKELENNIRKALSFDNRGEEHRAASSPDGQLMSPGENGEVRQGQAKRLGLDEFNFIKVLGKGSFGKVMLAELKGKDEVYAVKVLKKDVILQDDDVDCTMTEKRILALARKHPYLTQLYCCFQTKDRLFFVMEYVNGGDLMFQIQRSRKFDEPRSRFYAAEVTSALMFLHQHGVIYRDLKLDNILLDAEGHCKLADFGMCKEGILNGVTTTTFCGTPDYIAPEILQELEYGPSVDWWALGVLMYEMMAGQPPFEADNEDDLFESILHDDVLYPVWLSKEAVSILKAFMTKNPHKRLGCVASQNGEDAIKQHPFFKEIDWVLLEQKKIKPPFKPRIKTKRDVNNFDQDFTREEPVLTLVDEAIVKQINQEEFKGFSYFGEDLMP

[18] = target: Mitogen-activated protein kinase 4 (Homo sapiens) (UniProt P31152); details: Compound concentration 1000.0 nM
[19] = target: Tyrosine-protein kinase ABL1 (Homo sapiens) (UniProt P00519); details: Compound concentration 1000.0 nM
[20] = target: Fibroblast growth factor receptor 2 (Homo sapiens) (UniProt P21802); details: Compound concentration 1000.0 nM
[21] = target: Serine/threonine-protein kinase 36 (Homo sapiens) (UniProt Q9NRP7); details: Compound concentration 1000.0 nM
Chain of Serine/threonine-protein kinase 36 (Homo sapiens) (Q9NRP7 whole entry): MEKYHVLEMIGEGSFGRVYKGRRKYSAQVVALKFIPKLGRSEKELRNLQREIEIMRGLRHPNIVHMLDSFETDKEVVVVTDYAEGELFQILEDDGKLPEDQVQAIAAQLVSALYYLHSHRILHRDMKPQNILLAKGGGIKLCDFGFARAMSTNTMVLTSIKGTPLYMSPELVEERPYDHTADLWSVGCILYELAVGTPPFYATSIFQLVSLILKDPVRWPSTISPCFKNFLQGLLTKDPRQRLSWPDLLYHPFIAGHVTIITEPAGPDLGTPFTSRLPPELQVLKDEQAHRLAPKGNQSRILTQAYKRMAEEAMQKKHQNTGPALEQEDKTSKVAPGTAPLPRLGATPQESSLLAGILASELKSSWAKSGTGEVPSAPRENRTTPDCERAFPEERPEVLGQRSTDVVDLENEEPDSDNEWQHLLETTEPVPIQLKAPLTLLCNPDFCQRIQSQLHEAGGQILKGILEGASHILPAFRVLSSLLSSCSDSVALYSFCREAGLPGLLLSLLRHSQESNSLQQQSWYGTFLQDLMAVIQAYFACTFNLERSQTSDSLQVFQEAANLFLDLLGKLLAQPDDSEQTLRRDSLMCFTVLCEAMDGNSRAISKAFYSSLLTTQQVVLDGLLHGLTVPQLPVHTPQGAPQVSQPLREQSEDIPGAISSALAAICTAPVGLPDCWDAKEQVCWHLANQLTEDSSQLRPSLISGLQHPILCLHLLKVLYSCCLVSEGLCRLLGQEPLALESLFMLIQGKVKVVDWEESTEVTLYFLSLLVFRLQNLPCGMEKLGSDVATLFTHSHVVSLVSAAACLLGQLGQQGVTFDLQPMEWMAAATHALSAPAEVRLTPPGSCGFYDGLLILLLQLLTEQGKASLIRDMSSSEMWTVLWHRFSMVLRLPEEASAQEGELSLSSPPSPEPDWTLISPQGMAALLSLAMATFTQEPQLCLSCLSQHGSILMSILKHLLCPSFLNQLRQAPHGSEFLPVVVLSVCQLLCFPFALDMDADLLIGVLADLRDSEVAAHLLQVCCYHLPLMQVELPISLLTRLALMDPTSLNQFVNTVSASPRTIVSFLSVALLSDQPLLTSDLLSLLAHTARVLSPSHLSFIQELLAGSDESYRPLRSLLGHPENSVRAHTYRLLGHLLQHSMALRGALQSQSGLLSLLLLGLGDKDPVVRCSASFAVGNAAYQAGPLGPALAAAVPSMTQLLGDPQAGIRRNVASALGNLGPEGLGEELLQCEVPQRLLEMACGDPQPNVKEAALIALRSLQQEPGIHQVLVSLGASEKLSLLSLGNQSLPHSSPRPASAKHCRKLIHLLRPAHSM

[22] = target: MAP/microtubule affinity-regulating kinase 3 (Homo sapiens) (UniProt P27448); details: Compound concentration 1000.0 nM
[23] = target: T1, Alpha-2A adrenergic receptor (Homo sapiens) (UniProt P08913); details: Compound concentration 10.0 uM
T1 sequence (whole entry): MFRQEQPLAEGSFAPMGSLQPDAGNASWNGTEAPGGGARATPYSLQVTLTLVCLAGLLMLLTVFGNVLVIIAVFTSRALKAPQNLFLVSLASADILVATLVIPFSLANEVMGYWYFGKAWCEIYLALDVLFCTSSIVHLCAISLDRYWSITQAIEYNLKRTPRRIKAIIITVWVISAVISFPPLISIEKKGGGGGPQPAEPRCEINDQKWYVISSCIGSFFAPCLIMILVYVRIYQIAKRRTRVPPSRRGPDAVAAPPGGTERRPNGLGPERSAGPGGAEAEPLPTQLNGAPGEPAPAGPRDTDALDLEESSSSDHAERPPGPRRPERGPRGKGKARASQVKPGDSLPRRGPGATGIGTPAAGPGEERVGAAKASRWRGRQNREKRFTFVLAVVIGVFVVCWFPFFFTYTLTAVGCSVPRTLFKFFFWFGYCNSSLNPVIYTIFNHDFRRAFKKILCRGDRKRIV

[24] = target: Serine/threonine-protein kinase/endoribonuclease IRE1 (Homo sapiens) (UniProt O75460); details: Compound concentration 1000.0 nM
[25] = target: Serine/threonine-protein kinase NLK (Homo sapiens) (UniProt Q9UBE8); details: Compound concentration 1000.0 nM
[26] = target: MAP kinase-interacting serine/threonine-protein kinase 2 (Homo sapiens) (UniProt Q9HBH9); details: Compound concentration 1000.0 nM
[27] = target: Tyrosine-protein kinase CSK (Homo sapiens) (UniProt P41240); details: Compound concentration 1000.0 nM
[28] = target: Serine/threonine-protein kinase Nek3 (Homo sapiens) (UniProt P51956); details: Compound concentration 1000.0 nM
[29] = target: Ribosomal protein S6 kinase alpha-1 (Homo sapiens) (UniProt Q15418); details: Compound concentration 1000.0 nM
[30] = target: MAP kinase-activated protein kinase 5 (Homo sapiens) (UniProt Q8IW41); details: Compound concentration 1000.0 nM
[31] = target: Serine/threonine-protein kinase Nek1 (Homo sapiens) (UniProt Q96PY6); details: Compound concentration 1000.0 nM
[32] = test system: Mast/stem cell growth factor receptor Kit (Homo sapiens), P10721 [D816V]; details: Compound concentration 1000.0 nM
[33] = target: D(4) dopamine receptor (Homo sapiens) (UniProt P21917); details: Compound concentration 10.0 uM
[34] = target: Cyclin-G-associated kinase (Homo sapiens) (UniProt O14976); details: Compound concentration 1000.0 nM
[35] = target: Homeodomain-interacting protein kinase 4 (Homo sapiens) (UniProt Q8NE63); details: Compound concentration 1000.0 nM
[36] = target: High affinity nerve growth factor receptor (Homo sapiens) (UniProt P04629); details: Compound concentration 1000.0 nM
[37] = target: Serine/threonine-protein kinase MARK2 (Homo sapiens) (UniProt Q7KZI7); details: Compound concentration 1000.0 nM
[38] = target: Wee1-like protein kinase 2 (Homo sapiens) (UniProt P0C1S8); details: Compound concentration 1000.0 nM
[39] = target: Phosphatidylinositol 4,5-bisphosphate 3-kinase catalytic subunit gamma isoform (Homo sapiens) (UniProt P48736); details: Compound concentration 1000.0 nM
Chain of Phosphatidylinositol 4,5-bisphosphate 3-kinase catalytic subunit gamma isoform (Homo sapiens) (P48736 whole entry, looked up, canonical isoform): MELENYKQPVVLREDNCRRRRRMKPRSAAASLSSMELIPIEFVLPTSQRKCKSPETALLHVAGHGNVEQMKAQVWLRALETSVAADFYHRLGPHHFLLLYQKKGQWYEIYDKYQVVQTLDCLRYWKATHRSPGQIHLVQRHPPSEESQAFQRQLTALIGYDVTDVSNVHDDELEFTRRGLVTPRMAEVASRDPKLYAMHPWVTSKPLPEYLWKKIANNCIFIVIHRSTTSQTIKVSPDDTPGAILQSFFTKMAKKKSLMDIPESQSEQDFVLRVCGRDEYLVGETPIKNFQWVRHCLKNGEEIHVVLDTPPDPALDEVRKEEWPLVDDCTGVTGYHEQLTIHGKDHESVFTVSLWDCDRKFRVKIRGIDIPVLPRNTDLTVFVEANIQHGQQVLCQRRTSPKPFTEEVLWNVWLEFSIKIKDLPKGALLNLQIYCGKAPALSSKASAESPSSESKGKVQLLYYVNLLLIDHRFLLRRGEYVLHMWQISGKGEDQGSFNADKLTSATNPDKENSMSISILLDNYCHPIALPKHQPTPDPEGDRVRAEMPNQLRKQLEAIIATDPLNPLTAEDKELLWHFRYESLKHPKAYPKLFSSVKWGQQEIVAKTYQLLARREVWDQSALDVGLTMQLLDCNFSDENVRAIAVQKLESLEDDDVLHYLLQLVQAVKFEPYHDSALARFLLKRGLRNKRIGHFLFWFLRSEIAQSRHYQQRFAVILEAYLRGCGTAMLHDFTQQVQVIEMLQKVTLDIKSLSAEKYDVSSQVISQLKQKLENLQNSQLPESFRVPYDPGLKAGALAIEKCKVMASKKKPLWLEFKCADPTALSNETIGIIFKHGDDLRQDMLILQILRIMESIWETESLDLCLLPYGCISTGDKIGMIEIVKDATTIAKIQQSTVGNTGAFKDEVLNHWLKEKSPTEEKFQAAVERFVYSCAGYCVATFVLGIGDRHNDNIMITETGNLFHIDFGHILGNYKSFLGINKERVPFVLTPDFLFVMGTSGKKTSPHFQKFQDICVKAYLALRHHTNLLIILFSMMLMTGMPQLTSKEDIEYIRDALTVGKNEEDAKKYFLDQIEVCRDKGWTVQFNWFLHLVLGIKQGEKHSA

Chain of Mitogen-activated protein kinase kinase kinase 2 (Homo sapiens) (Q9Y2U5 whole entry): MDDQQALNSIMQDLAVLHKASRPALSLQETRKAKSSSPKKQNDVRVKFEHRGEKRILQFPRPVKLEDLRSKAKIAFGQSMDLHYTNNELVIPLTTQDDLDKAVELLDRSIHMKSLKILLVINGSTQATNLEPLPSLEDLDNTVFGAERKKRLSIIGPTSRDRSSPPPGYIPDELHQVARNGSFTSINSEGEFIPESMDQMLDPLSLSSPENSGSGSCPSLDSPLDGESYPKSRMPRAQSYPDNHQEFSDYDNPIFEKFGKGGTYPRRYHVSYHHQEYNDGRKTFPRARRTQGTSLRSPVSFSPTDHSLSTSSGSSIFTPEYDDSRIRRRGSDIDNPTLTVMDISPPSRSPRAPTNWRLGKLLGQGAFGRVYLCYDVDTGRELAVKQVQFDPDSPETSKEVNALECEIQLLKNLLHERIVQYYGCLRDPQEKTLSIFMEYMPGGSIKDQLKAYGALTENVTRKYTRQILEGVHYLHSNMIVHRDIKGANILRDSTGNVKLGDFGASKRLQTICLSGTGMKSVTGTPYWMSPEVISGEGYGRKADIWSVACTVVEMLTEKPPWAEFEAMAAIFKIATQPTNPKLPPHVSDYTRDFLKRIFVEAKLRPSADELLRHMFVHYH
Chain of Serine/threonine-protein kinase Nek9 (Homo sapiens) (Q8TD19 whole entry): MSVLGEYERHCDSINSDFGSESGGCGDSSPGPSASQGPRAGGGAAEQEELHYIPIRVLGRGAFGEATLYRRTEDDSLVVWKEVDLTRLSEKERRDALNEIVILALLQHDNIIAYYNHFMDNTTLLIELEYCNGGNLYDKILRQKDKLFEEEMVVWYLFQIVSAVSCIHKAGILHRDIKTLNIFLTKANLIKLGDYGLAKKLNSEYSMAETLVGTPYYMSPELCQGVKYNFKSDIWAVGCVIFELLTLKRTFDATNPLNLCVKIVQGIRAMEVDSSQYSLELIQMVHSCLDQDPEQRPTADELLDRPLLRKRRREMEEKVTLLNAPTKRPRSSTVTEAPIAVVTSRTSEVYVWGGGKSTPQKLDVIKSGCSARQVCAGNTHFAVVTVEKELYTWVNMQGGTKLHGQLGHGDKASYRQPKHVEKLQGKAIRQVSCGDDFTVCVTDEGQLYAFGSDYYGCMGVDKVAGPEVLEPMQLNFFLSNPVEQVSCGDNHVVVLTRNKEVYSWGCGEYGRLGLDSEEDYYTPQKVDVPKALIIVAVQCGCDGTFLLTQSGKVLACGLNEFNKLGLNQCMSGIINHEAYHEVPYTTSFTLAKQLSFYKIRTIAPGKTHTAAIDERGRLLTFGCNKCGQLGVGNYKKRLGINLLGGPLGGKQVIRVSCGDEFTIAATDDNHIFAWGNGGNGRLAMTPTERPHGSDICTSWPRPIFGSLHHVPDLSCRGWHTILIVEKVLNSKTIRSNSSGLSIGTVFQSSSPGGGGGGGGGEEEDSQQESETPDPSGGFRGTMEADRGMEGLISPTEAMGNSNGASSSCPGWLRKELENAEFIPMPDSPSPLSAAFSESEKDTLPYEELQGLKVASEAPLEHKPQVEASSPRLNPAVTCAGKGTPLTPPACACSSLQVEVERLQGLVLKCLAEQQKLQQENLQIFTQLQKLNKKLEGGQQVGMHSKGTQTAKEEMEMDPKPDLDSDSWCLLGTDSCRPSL

SMILES | residual activity [1] [%] | residual activity [2] [%] | residual activity [3] [%] | residual activity [4] [%] | residual activity [5] [%] | residual activity [6] [%] | residual activity [7] [%] | residual activity [8] [%] | residual activity [9] [%] | residual activity [10] [%] | residual activity [11] [%] | residual activity [12] [%] | residual activity [13] [%] | residual activity [14] [%] | inhibition [15] [%] | residual activity [16] [%] | residual activity [17] [%] | residual activity [18] [%] | residual activity [19] [%] | residual activity [20] [%] | further results
C[C@H](c1cccc(C#N)c1)n1cc(Cl)cc(C(N)=O)c1=N [(R)-9s] | 79 | 100 | 80 | 87 | 97 | 81 | 100 | 96 | 100 | 94 | 100 | 100 | 97 | 94 | -2.33 | 100 | 87 | 82 | 77 | 43 | residual activity [21]: 75%; residual activity [22]: 100%; inhibition [23]: 4.64%; residual activity [24]: 69%; residual activity [25]: 44%; residual activity [26]: 100%; residual activity [27]: 100%; residual activity [28]: 66%; residual activity [29]: 97%; residual activity [30]: 84%; residual activity [31]: 100%; residual activity [32]: 87%; inhibition [33]: 6.56%; residual activity [34]: 100%; residual activity [35]: 100%; residual activity [36]: 100%; residual activity [37]: 100%; residual activity [38]: 97%; residual activity [39]: 98%
C[C@@H](c1cccc(C#N)c1)n1cc(Cl)cc(C(N)=O)c1=N [(S)-9s] | 97 | 100 | 81 | 82 | 100 | 70 | 100 | 97 | 90 | 89 | 100 | 92 | 100 | 100 | 0.47 | 100 | 89 | 90 | 73 | 67 | residual activity [21]: 94%; residual activity [22]: 98%; inhibition [23]: -1.01%; residual activity [24]: 76%; residual activity [25]: 91%; residual activity [26]: 100%; residual activity [27]: 97%; residual activity [28]: 44%; residual activity [29]: 100%; residual activity [30]: 93%; residual activity [31]: 100%; residual activity [32]: 94%; inhibition [33]: 10.1%; residual activity [34]: 100%; residual activity [35]: 100%; residual activity [36]: 100%; residual activity [37]: 100%; residual activity [38]: 77%; residual activity [39]: 100%
